What was measured:
human α1A‐adrenoceptor [1] = molecular target: T1, human α1A‐adrenoceptor (Homo sapiens, UniProt P35348); assay: ^3H‐prazosin whole‐cell radioligand binding, CHO‐α1A cells; details: for Kd: CHO‐α1A cells, given as log KD (negative), mean ± SEM; for Affinity selectivity ratio α1A vs α1B: higher affinity for α1A than α1B
T1 construct: expressed in transfected cells; host or cells: CHO-K1
T1 sequence (P35348 1-466): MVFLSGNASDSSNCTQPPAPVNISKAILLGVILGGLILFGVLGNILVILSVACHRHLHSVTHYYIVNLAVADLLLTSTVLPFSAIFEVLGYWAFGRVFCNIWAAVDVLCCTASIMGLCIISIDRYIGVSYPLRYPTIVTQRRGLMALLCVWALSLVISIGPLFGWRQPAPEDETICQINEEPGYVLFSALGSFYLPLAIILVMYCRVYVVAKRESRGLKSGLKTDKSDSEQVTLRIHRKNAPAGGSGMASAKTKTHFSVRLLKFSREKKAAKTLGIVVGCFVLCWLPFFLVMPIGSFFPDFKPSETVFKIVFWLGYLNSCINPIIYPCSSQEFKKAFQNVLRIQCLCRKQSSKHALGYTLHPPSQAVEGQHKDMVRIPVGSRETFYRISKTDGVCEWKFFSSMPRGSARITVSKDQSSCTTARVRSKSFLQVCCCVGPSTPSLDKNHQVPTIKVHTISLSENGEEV

human α1B‐adrenoceptor [2] = molecular target: T2, human α1B‐adrenoceptor (Homo sapiens, UniProt P35368); assay: ^3H‐prazosin whole‐cell radioligand binding, CHO‐α1B cells; details: CHO‐α1B cells
T2 construct: expressed in transfected cells; host or cells: CHO-K1
T2 sequence (P35368 1-520): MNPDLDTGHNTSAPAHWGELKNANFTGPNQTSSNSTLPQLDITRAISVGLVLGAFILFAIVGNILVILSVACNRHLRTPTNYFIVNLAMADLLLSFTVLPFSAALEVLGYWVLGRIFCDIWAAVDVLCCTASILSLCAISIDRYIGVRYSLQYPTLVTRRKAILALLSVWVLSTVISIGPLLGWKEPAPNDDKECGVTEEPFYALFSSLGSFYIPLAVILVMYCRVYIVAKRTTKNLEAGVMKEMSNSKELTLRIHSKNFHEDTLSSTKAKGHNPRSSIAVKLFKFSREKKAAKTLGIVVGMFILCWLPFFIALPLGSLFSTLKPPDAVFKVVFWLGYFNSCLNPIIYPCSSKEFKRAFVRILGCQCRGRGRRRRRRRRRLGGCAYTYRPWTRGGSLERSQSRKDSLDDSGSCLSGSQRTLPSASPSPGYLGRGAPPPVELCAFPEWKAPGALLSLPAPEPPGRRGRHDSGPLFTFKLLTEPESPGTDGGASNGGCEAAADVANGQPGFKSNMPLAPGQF

[3] = molecular target: T3, human α1D‐adrenoceptor (full length) (Homo sapiens, UniProt P25100); assay: ^3H‐prazosin whole‐cell radioligand binding, CHO‐α1D cells; details: for Kd: CHO‐α1D cells; for Affinity selectivity ratio α1B vs α1D: higher affinity for α1D than α1B
T3 construct: human α1D‐adrenoceptor (full length) were used; expressed in transfected cells; host or cells: CHO-K1
T3 sequence (P25100 1-572): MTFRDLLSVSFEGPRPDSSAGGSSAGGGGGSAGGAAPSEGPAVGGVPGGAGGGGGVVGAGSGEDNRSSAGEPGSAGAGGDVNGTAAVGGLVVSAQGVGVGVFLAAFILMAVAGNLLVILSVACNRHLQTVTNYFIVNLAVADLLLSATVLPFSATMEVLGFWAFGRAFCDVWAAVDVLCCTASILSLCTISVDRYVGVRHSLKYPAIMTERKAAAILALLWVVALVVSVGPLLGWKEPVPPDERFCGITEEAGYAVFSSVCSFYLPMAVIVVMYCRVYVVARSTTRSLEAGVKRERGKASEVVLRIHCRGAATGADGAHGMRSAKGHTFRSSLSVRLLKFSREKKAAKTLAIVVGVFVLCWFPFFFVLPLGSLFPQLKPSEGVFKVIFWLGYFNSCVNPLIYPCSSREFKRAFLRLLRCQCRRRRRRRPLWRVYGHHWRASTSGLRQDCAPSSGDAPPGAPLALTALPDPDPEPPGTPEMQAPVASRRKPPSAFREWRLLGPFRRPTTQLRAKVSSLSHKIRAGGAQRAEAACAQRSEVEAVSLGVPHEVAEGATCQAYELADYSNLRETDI

human α1B‐adrenoceptor [4] = molecular target: T2, human α1B‐adrenoceptor; assay: Intracellular free calcium mobilization, CHO‐α1B cells; assay type: cell-based; details: CHO‐α1B cells; for EC50: given as log EC50 (negative numbers), read-out: Intracellular calcium release Log EC50 (converted); for Log efficacy ratio KD /EC50: intrinsic efficacy ratio, KD from binding / EC50 calcium; for Intracellular calcium release % ionomycin: maximal response as % of 10 µM ionomycin response
human α1A‐adrenoceptor [5] = molecular target: T1, human α1A‐adrenoceptor; assay: ERK1/2‐phosphorylation (Surefire Alphascreen), CHO‐α1A cells; assay type: cell-based; details: CHO‐α1A cells, ^a bi‐phasic: initial stimulatory part; for EC50: 2–4 min, ^b also active in parent CHO cells, read-out: ERK1/2‐phosphorylation Log EC50 (converted); for ERK1/2‐phosphorylation % PDBu: % of 10 µM PDBu
[6] = molecular target: T3, human α1D‐adrenoceptor (full length); assay: ERK1/2‐phosphorylation (Surefire Alphascreen), CHO‐α1D cells; assay type: cell-based; details: CHO‐α1D cells; for EC50: log values given negative, read-out: ERK1/2‐phosphorylation Log EC50 (converted); for ERK1/2‐phosphorylation % PDBu: maximal response as % of PDBu
[7] = test system: parental CHO cell line without any transfected receptors; assay: ERK1/2‐phosphorylation, parent CHO cells without transfected receptors; assay type: cell-based, Chinese hamster
human α1A‐adrenoceptor [8] = molecular target: T1, human α1A‐adrenoceptor; assay: ^3H‐cAMP accumulation, CHO‐α1A cells; assay type: cell-based; details: CHO‐α1A cells
human α1B‐adrenoceptor [9] = molecular target: T2, human α1B‐adrenoceptor; assay: ^3H‐cAMP accumulation, CHO‐α1B cells; assay type: cell-based; details: CHO‐α1B cells
[10] = molecular target: T3, human α1D‐adrenoceptor (full length); assay: ^3H‐cAMP accumulation, CHO‐α1D cells; assay type: cell-based; details: cAMP accumulation without forskolin
human α1A‐adrenoceptor [11] = molecular target: T1, human α1A‐adrenoceptor; assay: ^3H‐cAMP accumulation in the presence of 10 μM forskolin, CHO‐α1A cells; assay type: cell-based; details: CHO‐α1A cells; for EC50: 10 μM forskolin, read-out: cAMP accumulation (in presence of forskolin) Log EC50 (converted); for cAMP accumulation (in presence of forskolin) Fold increase: fold increase of the forskolin response
human α1B‐adrenoceptor [12] = molecular target: T2, human α1B‐adrenoceptor; assay: ^3H‐cAMP accumulation in the presence of 10 μM forskolin, CHO‐α1B cells; assay type: cell-based; details: CHO‐α1B cells; for cAMP accumulation (in presence of forskolin) Fold increase: fold increase of the forskolin response; for EC50: in presence of forskolin, read-out: cAMP accumulation (in presence of forskolin) Log EC50 (converted)
[13] = test system: parental CHO cell line without any transfected receptors; assay: Forskolin‐stimulated cAMP accumulation, parent CHO cells without transfected receptors; assay type: cell-based, Chinese hamster; details: CHO cells without transfected receptors; in presence of forskolin
[14] = given as log KD (negative), mean ± SEM, 'early plateau' = specific binding not fully inhibited

Row | Kd (human α1A‐adrenoceptor [1]) | Affinity selectivity ratio α1A vs α1B (human α1A‐adrenoceptor [1]) | Kd [3, 14] | Affinity selectivity ratio α1B vs α1D [3] | EC50 (human α1B‐adrenoceptor [4]) | Log efficacy ratio KD /EC50 (human α1B‐adrenoceptor [4]) | Intracellular calcium release % ionomycin (human α1B‐adrenoceptor [4]) | EC50 (human α1A‐adrenoceptor [5]) | ERK1/2‐phosphorylation % PDBu (human α1A‐adrenoceptor [5]) | EC50 [6] | ERK1/2‐phosphorylation % PDBu [6] | cAMP Log EC50 [10] | EC50 (human α1A‐adrenoceptor [11]) | cAMP accumulation (in presence of forskolin) Fold increase (human α1A‐adrenoceptor [11]) | cAMP accumulation (in presence of forskolin) Fold increase (human α1B‐adrenoceptor [12]) | EC50 (human α1B‐adrenoceptor [12]) | Compound | cAMP accumulation (in presence of forskolin) Log EC50 [13] | also measured
1 | 85.1 µM | >11.7 fold | 56.2 µM | >17.8 fold | 0.112 µM | >3.95 | 60.1 ± 3.1% | 0.0977 µM | 83.9 ± 4.1% | 2.69 µM | 20.5 ± 3.0% | No response | 0.813 µM | 2.54 ± 0.11 fold | 2.58 ± 0.07 fold | 1.48 µM | C[C@H](N)[C@H](O)c1cccc(O)c1 [Metaraminol] | No response | IC50 (human α1B‐adrenoceptor [2]; printed as IC50> log value): > 1000 µM; Kd ([3]; 3H‐prazosin binding Log KD, whole‐cell binding (from Table 1), log values given negative): 56.2 µM; Affinity selectivity ratio α1A vs α1D ([3]; higher affinity for α1D than α1A): 1.5 fold; ERK1/2-phosphorylation % PDBu ([7]; CHO cells without transfected receptors, maximal response as % of PDBu (10μM) response, mean ± s.e.m.): No response; ERK1/2-phosphorylation Log EC50 ([7]; CHO cells without transfected receptors, mean ± s.e.m.): No response; cAMP accumulation % forskolin at 100 µM (human α1A‐adrenoceptor [8]; response at 100 μM ligand, no EC50 obtained): 122.7 ± 9.8%; cAMP accumulation % forskolin at 100 µM (human α1B‐adrenoceptor [9]; response at 100 µM ligand (no EC50 given)): 42.0 ± 5.1%
2 | 4.68 µM | 28.8 fold | 11.7 µM | 11.5 fold | 0.0269 µM | 3.70 | 59.0 ± 2.4% | 0.0347 µM | 87.4 ± 2.3% | 6.92 µM | 16.1 ± 4.0% | No response | 0.155 µM | 2.22 ± 0.05 fold | 2.67 ± 0.18 fold | 0.324 µM | N=C(N)NC(=O)Cc1c(Cl)cccc1Cl [Guanfacine] | No response | Affinity selectivity ratio α1A vs α1D (human α1A‐adrenoceptor [1]; higher affinity for α1A than α1D): 2.5 fold; Kd (human α1B‐adrenoceptor [2]; given as log KD (negative), mean ± SEM): 135 µM; Emax at 100 µM ([7]; Cricetulus griseus, CHO, read-out: ERK1/2-phosphorylation % PDBu at 100μM): 2.5 ± 1.7%; EC50 (human α1A‐adrenoceptor [8]; 5 h, read-out: cAMP accumulation Log EC50 (converted)): 2.88 µM; cAMP accumulation % forskolin (human α1A‐adrenoceptor [8]; % of 10 µM forskolin response): 41.1 ± 2.3%; cAMP accumulation % forskolin (human α1B‐adrenoceptor [9]; % forskolin maximum response): 39.0 ± 5.8%; EC50 (human α1B‐adrenoceptor [9]; read-out: cAMP accumulation Log EC50 (converted)): 1.62 µM

— article PMC8343220, “The selectivity of α‐adrenoceptor agonists for the human α1A, α1B, and α1D‐adrenoceptors” (Pharmacology Research & Perspectives, 2021)
